Literature values in US20140163109A1, “TASTE-MASKED IBUPROPEN GRANULES” (GLATT AG, priority 2012, published 2014).

Question: Which solubility in water does the source give for `CC(C)Cc1ccc(C(C)C(=O)O)cc1` (racemic) [Ibuprofen, (±)-2-(4-isobutylphenyl) propionic acid] here?
Answer: The solubility in water was “poorly soluble in water”.
